Source: US9850183B2, “Conjugates derived from non-steroidal anti-inflammatory drugs and methods of use thereof in imaging” (Reiley Pharmaceuticals, Inc., priority 2014, dated 2017)

What was measured:
COX-2 = target: T1, COX-2 (Mus musculus, UniProt Q05769); test: Cell-based COX-2 assay (PGE2 in LPS/IFN-g stimulated RAW264.7 cells); conditions: RAW264.7 murine macrophages, 1 μg/ml LPS and 10 U/ml IFN-g for 7 h, PGE2 readout
T1 construct: endogenous in cells; host or cells: RAW264.7 murine macrophages, stimulated with LPS and IFN-g
T1 sequence (Q05769 18-604): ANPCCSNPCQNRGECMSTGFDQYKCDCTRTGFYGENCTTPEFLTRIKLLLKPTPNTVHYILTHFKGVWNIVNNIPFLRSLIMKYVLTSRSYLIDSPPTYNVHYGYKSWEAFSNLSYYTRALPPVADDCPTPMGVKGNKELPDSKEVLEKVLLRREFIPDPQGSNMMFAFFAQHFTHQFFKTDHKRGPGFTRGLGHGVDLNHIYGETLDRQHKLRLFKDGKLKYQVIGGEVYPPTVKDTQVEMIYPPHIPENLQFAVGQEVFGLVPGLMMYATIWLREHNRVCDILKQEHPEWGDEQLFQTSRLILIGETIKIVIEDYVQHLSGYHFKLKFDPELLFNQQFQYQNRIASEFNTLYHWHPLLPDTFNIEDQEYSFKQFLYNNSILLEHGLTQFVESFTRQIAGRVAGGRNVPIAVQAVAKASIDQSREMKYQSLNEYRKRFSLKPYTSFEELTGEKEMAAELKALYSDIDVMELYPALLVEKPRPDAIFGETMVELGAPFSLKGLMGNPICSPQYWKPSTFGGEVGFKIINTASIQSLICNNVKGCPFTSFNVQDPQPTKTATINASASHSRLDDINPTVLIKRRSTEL
Experimental: RAW264.7 murine macrophages were obtained from the Cell Bank of Shanghai Institute of Biochemistry and Cell Biology, Chinese Academy of Sciences (Shanghai, China) and cultured in Dulbecco's modified Eagle's medium containing 100 U/ml penicillin and 100 μg/ml streptomycin at 37° C. in 5% CO2.
RAW264.7 cells were plated at a density of 2.5×10^5/ml cells in a 96-well plate with 0.1 ml of culture medium per well and cultured overnight. The cells were pre-incubated for 30 min with various doses of compounds and stimulated for 7 h with 1 μg/ml LPS and 10 U/ml IFN-g. The cell culture supernatants were collected immediately following treatment and centrifuged at 1,000 rpm for 5 min to remove the particulate matter. PGE2 was determined using a Prostaglandin E2 assay kit (catalog no. 62P2APEB; Cisbio Co.,). 10 μL of cell supernatant was transferred to a 384-well low volume plate (e.g. Corning® 3544), 5 μL of PGE2-d2 was added, followed by 5 μL anti-PGE2 Cryptate as a negative control. Replace the standard by 10 μL of diluent and PGE2-d2 by 5 μL of reconstitution buffer, Cal0 (for positive control), replace the standard by 10 μL of diluent. Incubate at 4° C. overnight. After centrifuging at 1,000 rpm for 1 min, the dual fluorescence emissions of 615 and 665 nm with a 320 nm excitation were measured using an Envision plate reader (Perkin Elmer, Shelton, Conn.). The results are expressed as the ratio of 665 nm/615 nm emissions.
(§1) Dose-response curves were generated using XLFit (IDBS, Surrey, UK) or Prism (GraphPad Software, La Jolla, Calif., US) to calculate IC50 values for each compound tested.

human COX-2 = target: T2, human COX-2 (Homo sapiens, UniProt P35354); test: COX-2 enzyme assay (EIA kit, PGF2α readout); type: biochemical; conditions: human COX-2 enzyme, EIA; 15 min pre-incubation at 37° C.; read-out: COX-2 IC50 (μM) enzyme
T2 construct: purchased Cayman Chemical Co., Ann Arbor, Mich., USA 701080
T2 sequence (P35354 18-604): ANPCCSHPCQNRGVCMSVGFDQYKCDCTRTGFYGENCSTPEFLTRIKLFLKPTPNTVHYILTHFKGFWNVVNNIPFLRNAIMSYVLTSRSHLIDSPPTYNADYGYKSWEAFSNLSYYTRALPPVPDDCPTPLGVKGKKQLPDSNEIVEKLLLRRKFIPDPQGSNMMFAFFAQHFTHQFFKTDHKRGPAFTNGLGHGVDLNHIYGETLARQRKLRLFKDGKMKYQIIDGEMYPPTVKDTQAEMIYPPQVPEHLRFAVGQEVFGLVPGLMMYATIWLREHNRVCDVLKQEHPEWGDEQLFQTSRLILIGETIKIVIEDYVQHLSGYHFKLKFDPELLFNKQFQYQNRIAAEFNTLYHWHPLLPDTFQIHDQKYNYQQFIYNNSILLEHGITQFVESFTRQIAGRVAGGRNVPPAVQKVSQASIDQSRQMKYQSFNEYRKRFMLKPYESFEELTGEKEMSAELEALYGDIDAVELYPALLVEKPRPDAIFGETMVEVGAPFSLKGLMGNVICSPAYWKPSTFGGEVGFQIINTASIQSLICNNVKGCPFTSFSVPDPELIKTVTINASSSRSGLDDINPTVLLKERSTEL
Experimental: The ability of compounds to inhibit ovine COX-1 and human COX-2 was determined using a commercially available enzyme immunoassay (EIA) kit (catalog no. 701090 (COX-1); 701080 (COX-2) Cayman Chemical Co., Ann Arbor, Mich., USA) according to the manufacturer's protocol. COX catalyzes the first step in the biosynthesis of AA to PGH2. PGF2α, produced from PGH2 by reduction with stannous chloride, was measured by EIA (ACE™ competitive EIA, Cayman Chemical, Ann Arbor, Mich., USA). Briefly, to a series of supplied reaction buffer solutions [960 μl 0.1 M Tris-HCl (pH 8.0) containing 5 mM EDTA and 2 mM phenol] with either COX-1 or COX-2 (10 μl) enzyme in the presence of heme (10 μl), 10 μl of various concentrations of test drug solutions were added. These solutions were incubated for 15 min at 37° C. and subsequently 10 μl AA solution (100 μM) was added. The COX reaction was stopped by the addition of 30 μl stannus chloride after 2 min, mixed immediately, supernatants were 2000 fold diluted. The produced PGF2α was measured by EIA. This assay is based on the competition between PGs and a PG-acetylcholinesterase conjugate (PG tracer) for a limited amount of PG antiserum. The amount of PG tracer that is able to bind to the PG antiserum is inversely proportional to the concentration of PGs in the wells since the concentration of the PG tracer is held at a constant while the concentration of PGs varies. The specific antiserum-PG complex bound to a mouse anti-rabbit IgG that had been previously attached to the well. The plate was washed to remove any unbound reagents and 200 μl Ellman's reagent (5,5′-dithiobis-(2-nitrobenzoic acid), which contains the substrate to acetylcholine esterase, was added to the well. The product of this enzymatic reaction generates a distinct yellow color that absorbs at 406 nm. The intensity of this color, determined by spectrophotometry, is proportional to the amount of PG tracer bound to the well, which is inversely proportional to the amount of PGs present in the well during the incubation. Percent inhibition was calculated by the comparison of the compounds treated to the various control incubations.
as §1

SMILES | IC50 (COX-2) [µM] | IC50 (human COX-2) [µM]
COc1ccc2c(c1)c(CC(=O)NCCC(C)(C)CC[N+]13CC[S][Re-]14(=[O])[S]CC[N]4CC3)c(C)n2C(=O)c1ccc(Cl)cc1 (stereo not shown) [Compound 307] | 0.5 | > 30
COc1ccc2c(c1)c(CC(=O)N[C@H](C)CCCCC[N+]13CC[S][Re-]14(=[O])[S]CC[N]4C(=O)C3)c(C)n2C(=O)c1ccc(Cl)cc1 (stereo partly shown) [Compound 328] | 0.1 | 0.6
COc1ccc2c(c1)c(CC(=O)NCCCCCCNC(=O)C1C[S][Re]34(=[O])[S]CC(C(=O)OC(C)C)[N]3CC[N]14)c(C)n2C(=O)c1ccc(Cl)cc1 (stereo not shown) [Compound 185] | 0.5 | 1.2
COc1ccc2c(c1)c(CCNC(=O)CCCCC[N+]13CC[S][Re-]14(=[O])[S]CC[N]4C(=O)C3)c(C)n2C(=O)c1ccc(Cl)cc1 (stereo not shown) [Compound 359] | 0.2 | 0.6
CCOC(=O)C1C[S][Re]23(=[O])[S]CC(C(=O)NCCCCCCCNC(=O)Cc4c(C)n(C(=O)c5ccc(Cl)cc5)c5ccc(OC)cc45)[N]2CC[N]13 (stereo not shown) [Compound 182] | 0.6 | 0.8
COc1ccc2c(c1)c(CC(=O)NCc1ccc(CNC(=O)[c-]3cccc3)cc1)c(C)n2C(=O)c1ccc(Cl)cc1.[C-]#[O+].[C-]#[O+].[C-]#[O+].[Re+] [Compound 249] | 4.4 | 1.1
COc1ccc2c(c1)c(CC(=O)NCCCOCCC[N+]13CC[S][Re-]14(=[O])[S]CC[N]4C(=O)C3)c(C)n2C(=O)c1ccc(Cl)cc1 (stereo not shown) [Compound 266] | 0.2 | 0.6
COc1ccc2c(c1)c(CC(=O)NCCOCCOCCNC(=O)c1ccc[cH-]1)c(C)n2C(=O)c1ccc(Cl)cc1.[C-]#[O+].[C-]#[O+].[C-]#[O+].[Re+] [Compound 251] | > 30 | 0.3
CCOC(=O)C1C[S][Re]23(=[O])[S]CC(C(=O)NCCCCCCNC(=O)Cc4c(C)n(C(=O)c5ccc(Cl)cc5)c5ccc(OC)cc45)[N]2CC[N]13 (stereo not shown) [Compound 181] | 1.5 | 1
COc1ccc2c(c1)c(CC(=O)NCCCCCCNC(=O)C[N]1C(=O)C[N]3C(=O)C[N]4C(=O)C[S][Re]143=[O])c(C)n2C(=O)c1ccc(Cl)cc1 [Compound 27] | 12.7 | 0.6
COc1ccc2c(c1)c(CC(=O)NCCC=CCC[N+]13CC[S][Re-]14(=[O])[S]CC[N]4C(=O)C3)c(C)n2C(=O)c1ccc(Cl)cc1 (stereo not shown) [Compound 341] | 0.3 | 0.8
COc1ccc2c(c1)c(CC(=O)NCCOCCOCC[N+]13CC[S][Re-]14(=[O])[S]CC[N]4C(=O)C3)c(C)n2C(=O)c1ccc(Cl)cc1 (stereo not shown) [Compound 269] | 0.9 | 0.5
COc1ccc2c(c1)c(CC(=O)NCCCCCCCCNC(=O)[c-]1cccc1)c(C)n2C(=O)c1ccc(Cl)cc1.[C-]#[O+].[C-]#[O+].[C-]#[O+].[Re+] [Compound 247] | 2.6 | 0.2
COc1ccc2c(c1)c(CC(=O)NCCCCC(C)(C)NC(=O)c1ccc[cH-]1)c(C)n2C(=O)c1ccc(Cl)cc1.[C-]#[O+].[C-]#[O+].[C-]#[O+].[Re+] [Compound 312] | 0.4 | 0.1
